Entries after “also recorded” stand apart in the source; their conditions may differ. Read-outs that look alike come from different tables or passages of the source.
Legend:
[1] = system: rat meningeal mast cells; assay: Mast cell degranulation in hemi-skull preparations (dura mater, toluidine blue staining, microscopic count); format: cell-based, rat (male Sprague-Dawley); conditions: for mast cell degranulation: Figure 4A, PACAP-27 n = 6, maxadilan n = 5, mean ± SEM; for mast cell degranulation (result in words): 0.1 to 10 μM, rat meningeal mast cells; for degranulated meningeal mast cells in % of total number of mast cells: 30 s incubation, mean ± SEM
Procedure: Mast cell degranulation was performed as previously described (Pedersen et al., [2015]). In brief, skulls were cut mid-sagittal and the brain halves were removed, leaving the dura mater undisturbed. This was followed by immediate addition of either 350 μl 0.1, 1 or 10 μM PACAP-38 (custom synthesis by Caslo Laboratory ApS, Lyngby, Denmark) or vehicle (saline) in phosphate buffered saline (PBS). After 30 s incubation, the reactions were terminated, and the skulls were fixated in 4% paraformaldehyde in phosphate buffered saline (PBS; Glostrup Hospital Pharmacy, Denmark). The dura mater was dissected from the skull, whole mounted on slides, and mast cells were visualized by staining with 0.1% acidified toluidine blue (Sigma Aldrich, Germany). Tissues were dehydrated in graded alcohols prior to cover slip mounting. The level of mast cell degranulation was evaluated by 400× magnification (Nikon Eclipse Ni microscope) by a researcher blinded to the treatment and was counted in 10 consecutive fields along the stem part of the middle meningeal artery. Mast cells were considered degranulated if an extensive dispersion of more than 10 extruded granules were localized outside the cell or if an extensive loss of staining gave the cell a “ghostly” look.
(§1) Concentration-response curves for both oocytes and dural mast cells were analyzed for overall effects of PACAP-38 and -27 by two-way analyses of variance (ANOVA) followed by Sidak’s test for multiple pairwise comparisons. Effects of PAC1-receptor ligands on mast cell degranulation or on receptor-expressing oocytes were analyzed with a one-way ANOVA followed by Tukey’s multiple comparisons test. The effect of PACAP-38 and PACAP(6–38) on MrgB3-expressing oocytes were analyzed by an unpaired two-tailed t-test. Differences between groups were considered significant when p < 0.05 and data are presented as mean with standard error of the mean (±SEM). GraphPad Prism 7 (GraphPad Prism Software, San Diego, CA, USA) was used for statistical analysis.

[2] = system: PAC1-receptor (Rattus Norvegicus Adcyap1r1 variant 5, null-splice variant); format: cell-based
Excerpt: (§2) DNA of the coding region of Rattus Norvegicus Adcyap1r1 variant 5 (NM_001270582.1) encoding the null-splice variant (short N-terminal and neither exon 14 or 15) of the PAC1-receptor (Vector: EX-Rn10199-M03) was ordered from GeneCopoeia. DNA encoding the RGD1560730 gene (XM_006229262.3, GenScript), was cloned into the pXOOM vector as previously described (Jespersen et al., [2002]). DNA was purified using Plasmid DNA Purification NucleoBond Xtra Midi-kit (Macherey-Nagel). […] Extracted plasmids were linearized down-stream the poly(A) segment using the XhoI restriction enzyme (New England Biolabs, Ipswich, MA, USA). RNA was in vitro transcribed by synthetization from the T7 RNA polymerase promoter using the mMessenger mMachine kit (Ambion) according to manufacturer’s protocol. Messenger RNA was purified using the MEGAclear kit (Ambion). Transcribed RNA integrity was assessed by agarose gel electrophoresis.
(§3) Stage V and VI defolliculated Xenopus laevis oocytes were purchased from EcoCyte Bioscience (Dortmund, Germany) and kept in Kulori medium (90 mM NaCl, 4 mM KCl, 1 mM MgCl2, 1 mM CaCl2, and 5 mM Hepes, pH 7.4). Oocytes were micro-injected with 50 nl mRNA solution containing 30 ng RNA per oocyte and incubated at 19°C. Currents were measured after 2–5 days using a conventional two-electrode-voltage clamp (TEVC). The oocytes were placed in a 200 μl chamber and continuously exposed to a flow of Kulori medium with or without ligands (1 ml/min) while impaled with both a current and a voltage electrode filled with 3 M KCl and connected to an Oocyte Clamp Amplifier [Warner Instruments Corp. (OC-725 B) and a PC-interface (Digidata1440A, Molecular Devices)]. Current amplitude in absence or presence of ligands were analyzed using pClamp 10.2 software (Molecular Devices). All experiments were performed with oocyte membrane voltages constantly clamped to −70 mV and the temperature was kept between 19 and 22°C. In activation experiments, non-responding as well as low-responding (<10 nA) oocytes were excluded from the dataset. Ligands PACAP-38, PACAP-27, PACAP(6–38) were custom synthetized by Caslo (Lyngby, Denmark) while maxadilan was purchased from Bachem (Bubendorf, Switzerland).
as §1

[3] = system: MrgB3-receptor (RGD1560730); assay: Two-electrode voltage clamp on MrgB3-receptor-expressing Xenopus laevis oocytes; format: cell-based, rat; conditions: for activation of MrgB3-receptor (result in words): 1–10 μM, holding potential −70 mV
Excerpt: as §2, §3, §1

[4] = system: un-injected oocytes; assay: Two-electrode voltage clamp on un-injected Xenopus laevis oocytes (control); format: cell-based; conditions: for currents in un-injected oocytes (result in words): same concentrations as in receptor-expressing oocytes (0.1–3 μM; maxadilan up to 10 μM), data not shown; for delayed long-lasting response in un-injected oocytes: 10 μM
Procedure: as §3

[5] = system: rat peritoneal mast cells; conditions: ref Baun et al., 2012, cited from earlier work; for peritoneal mast cell degranulation (result in words): rat peritoneal mast cells
Excerpt: Inspired by clinical findings, we have previously characterized the degranulating effect of various PACAP-analogues on isolated rat peritoneal mast cells. Based on the expectation that degranulation is mediated through the PAC1-receptor, we found an unpredicted order of potency (Baun et al., [2012]).

[6] = system: calcitonin gene-related peptide (CGRP) release from the trigeminal nucleus caudalis; conditions: ref Jansen-Olesen et al., 2014; cited from earlier work
Excerpt: Future studies will have to rule out if MrgB3-receptors are involved in PACAP- ...

[7] = system: migraine patients; conditions: ref Schytz et al., 2009, cited from earlier work
Excerpt: Pituitary adenylate cyclase-activating peptide-38 (PACAP-38) is a 38-amino acid neuropeptide located in both sensory and parasympathetic perivascular nerve fibers (Moller et al., [1993]; Mulder et al., [1994]). A C-terminal truncated 27-amino acid (PACAP-27) version is endogenously present as well but is less abundant (Miyata et al., [1990]; Arimura et al., [1991]; Ogi et al., [1993]). […] Degranulation of mast cells can be induced either by an allergen-IgE-dependent mechanism or via an IgE-independent mechanism. The latter mechanism can be activated by a group of molecules known as basic secretagogues.

[8] = system: VPAC1-receptor; design: method as in Harmar et al., 2012; conditions: PACAP-38, PACAP-27 and VIP compared; ref Harmar et al., 2012; cited from earlier work
[9] = system: VPAC2-receptor; design: method as in Harmar et al., 2012; conditions: PACAP-38, PACAP-27 and VIP compared; ref Harmar et al., 2012; cited from earlier work
[10] = system: PAC1-receptor; conditions: presence of 21-amino acid domain in extracellular N-terminal domain (PAC1-full, short); ref Pantaloni et al., 1996; cited from earlier work
Excerpt: Pituitary adenylate cyclase-activating peptide-38 (PACAP-38) is a 38-amino acid neuropeptide located in both sensory and parasympathetic perivascular nerve fibers (Moller et al., [1993]; Mulder et al., [1994]). A C-terminal truncated 27-amino acid (PACAP-27) version is endogenously present as well but is less abundant (Miyata et al., [1990]; Arimura et al., [1991]; Ogi et al., [1993]). […] At present, three PACAP-receptors have been identified: PA ... || Several different splice variants of the PAC1-receptor have been identified in rats. Splice sites in the extracellular N-terminal domain and the third intracellular loop account for fine tuning of ligand affinity and signal transduction through adenylate cyclase or PLC activation (Deutsch and Sun, [1992]; Spengler et al., [1993]).

[11] = 10.0 μM, n = 6, **** p < 0.0001 for PACAP-38 (two-way ANOVA, Sidak's test)

Compound	mast cell degranulation ([1]; 10 μM, 30 s) [%]	mast cell degranulation (result in words) ([1]; 30 s)	activation of PAC1-receptor / relative potency (result in words) ([2]; 0.01 to 1 μM, holding potential −70 mV)	activation of MrgB3-receptor (result in words) [3]	current ([3]; up to 10 μM, −70 mV, Figure 4C, n = 9, mean ± SEM) [μA]	currents in un-injected oocytes (result in words) [4]	peritoneal mast cell degranulation (result in words) [5]	release of CGRP from the trigeminal nucleus caudalis (result in words) [6]	degranulated meningeal mast cells in % of total number of mast cells ([1]; 0.1 μM, n = 5) [% degranulation]	degranulated meningeal mast cells in % of total number of mast cells ([1]; 1.0 μM, n = 6) [% degranulation]	degranulated meningeal mast cells in % of total number of mast cells [1, 11]	increase in mast cell degranulation ([1]; 10 μM, 30 s, p < 0.0001)	activation of PAC1-receptor / relative potency (result in words) [2]	delayed long-lasting response in un-injected oocytes [4]	migraine attacks / headache after infusion (result in words) ([7]; PACAP-38: 20-min intravenous infusion)	adverse events after infusion (result in words) ([7]; infusion, terminated by antihistamine treatment)	profile on VPAC1-receptor (result in words) [8]	profile on VPAC2-receptor (result in words) [9]	effect of inhibitor on PACAP-38-induced degranulation (result in words) [5]	effect of 21-amino acid N-terminal domain of PAC1 on binding (result in words) [10]
maxadilan	5 ± 2	unresponsive	activates the PAC1-receptor with apparently equal potencies; also recorded: equipotent	does not activate MrgB3-receptors; also recorded: no change; also recorded: not PACAP-27 and maxadilan induces currents	−0.03 ± 0	Currents were not observed	no effect on mast cell degranulation; also recorded: ineffective	neither VIP, PACAP-27 nor maxadilan, mediated the release												
pituitary adenylate cyclase activating peptide-38 [PACAP-38]		more potent mast cell degranulating agent than Pituitary Adenylate Cyclase Activating Peptide-27 (PACAP-27) in the meninges; also recorded: significant mast cell degranulation only was observed after stimulation with PACAP-38; also recorded: strong degranulation of meningeal mast cells		only PACAP-38 induces a significant change in current; also recorded: rapid concentration-depended inward current; also recorded: caused a change in current; also recorded: induces currents		Currents were not observed	caused degranulation; also recorded: strong degranulation effect; also recorded: almost total mast cell degranulation within the first 10–20 s after application	mediated the release	12.4 ± 3.8	17.9 ± 3.7	48.4 ± 6.2**** % degranulation	eight-fold increase	equipotent; also recorded: significant increase in membrane current; also recorded: activates the PAC1-receptor with apparently equal potencies	15 out of 19	provokes migraine attacks in migraine patients as well as headache in non-migraineurs	all participants in the clinical provocation studies experienced long-lasting flushing; also recorded: heat sensation and long-lasting flushing	equipotent	equipotent		
COc1ccc2c(c1)CC[C@@H]1[C@@H]2CC[C@]2(C)[C@@H](NCCCCCCN3C(=O)C=CC3=O)CC[C@@H]12 [U-73122]																			impaired	
Pituitary Adenylate Cyclase Activating Peptide-27 [PACAP-27]	12 ± 4	did not induce mast cell degranulation that was significantly different from saline treatment; also recorded: unresponsive		not significantly different from baseline; also recorded: no change; also recorded: not PACAP-27 and maxadilan induces currents		Currents were not observed	not PACAP-27 and VIP, caused degranulation; also recorded: weak degranulating effect	neither VIP, PACAP-27 nor maxadilan, mediated the release	7.1 ± 3.2	16.9 ± 5.5	12.1 ± 3.8 % degranulation		equipotent; also recorded: significant increase in membrane current; also recorded: activates the PAC1-receptor with apparently equal potencies	not PACAP-27			equipotent	equipotent		impairs PACAP-27 binding
Nc1ncnc2c1ncn2C1CCCO1 (stereo not drawn) [SQ22536]																			ineffective	
